Measurements from BindingDB's records for doi:10.7270/Q2N58JS6 (University of Pittsburgh, 2007).
pEC50: −log10 of the molar value.

Target: Serine/threonine-protein kinase PLK1 (Homo sapiens, UniProt P53350)
Test: redox cycling hydrogen peroxide generation, dose response, artefact control for Plk1 PBD inhibitor project, biochemical, 1 mM DTT (AID 936)

Sequence of Serine/threonine-protein kinase PLK1 (P53350 whole entry): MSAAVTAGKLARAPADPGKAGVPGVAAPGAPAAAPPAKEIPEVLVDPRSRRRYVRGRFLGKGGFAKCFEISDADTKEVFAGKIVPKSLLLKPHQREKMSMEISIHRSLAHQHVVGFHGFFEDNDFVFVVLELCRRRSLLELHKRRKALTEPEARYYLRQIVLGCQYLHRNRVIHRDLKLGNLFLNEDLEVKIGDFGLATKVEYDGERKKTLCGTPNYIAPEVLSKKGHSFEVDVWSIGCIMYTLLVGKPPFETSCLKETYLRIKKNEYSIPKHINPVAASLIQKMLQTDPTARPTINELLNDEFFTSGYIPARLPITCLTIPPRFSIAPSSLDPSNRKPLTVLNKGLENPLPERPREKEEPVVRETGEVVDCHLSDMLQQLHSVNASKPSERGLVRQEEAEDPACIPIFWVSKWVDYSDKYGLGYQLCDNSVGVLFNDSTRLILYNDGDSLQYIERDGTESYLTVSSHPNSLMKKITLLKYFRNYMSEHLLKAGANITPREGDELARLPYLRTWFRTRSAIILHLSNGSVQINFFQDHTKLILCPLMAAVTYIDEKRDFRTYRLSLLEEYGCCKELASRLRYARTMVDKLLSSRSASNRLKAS

Compound | pEC50
O=C1C(=O)c2ccccc2-c2ccccc21 | < 4.30
Cc1ccc(-n2c(O)c(C=NCCN3CCOCC3)c(=O)[nH]c2=O)cc1 | < 4.30
CCOC(=O)c1ccc(NC(=O)c2c(O)[nH]c(=O)[nH]c2=O)cc1 | < 4.30
O=c1[nH]cc(COCc2ccccc2)c(=O)[nH]1 | < 4.30
Cc1ccc(NC2=CC(=NS(=O)(=O)c3cccs3)c3ccccc3C2=O)c(C)c1 | < 4.30
CN1C(=O)N(C)C(=O)C2(Sc3ccccc3C2=O)C1=O [1',3'-dimethylspiro[benzothiophene-2,5'-hexahydropyrimidine]-2',3,4',6'-diquinone] | < 4.30
Cc1ccc2c(c1)CC1(CN2C)C(=O)NC(=O)N(c2ccccc2C)C1=O (stereo not given) [1',6'-dimethyl-1-(2-methylphenyl)spiro[1,3-diazinane-5,3'-2,4-dihydroquinoline]-2,4,6-trione] | < 4.30
Cc1nc2c(=O)n(C)c(=O)nc-2n(C)n1 [1,3,6-Trimethyl-1H-pyrimido[5,4-e][1,2,4]triazine-5,7-dione] | < 4.30
Cn1c(=O)c2c(ncn2CCCc2ccccc2)n(C)c1=O [1,3-Dimethyl-7-(3-phenyl-propyl)-3,7-dihydro-purine-2,6-dione] | < 4.30
Cc1ccc(CNC(=O)c2cc3c(=O)n(C)c4ccccc4c3n2C)cc1 [1,5-dimethyl-N-[(4-methylphenyl)methyl]-4-oxidanylidene-pyrrolo[3,2-c]quinoline-2-carboxamide] | < 4.30
O=C(Nc1ccccn1)C1CCN(S(=O)(=O)c2cccc3nonc23)CC1 [1-(2,1,3-benzoxadiazol-4-ylsulfonyl)-N-(2-pyridinyl)-4-piperidinecarboxamide] | < 4.30
Cn1c(=O)c(NCCO)c2c3c(cccc31)C(=O)c1ccccc1-2 [1-(2-Hydroxy-ethylamino)-3-methyl-3H-naphtho[1,2,3-de]quinoline-2,7-dione] | < 4.30
COc1cc(S(=O)(=O)N2CCCCCC2)ccc1-n1cnnn1 [1-(3-Methoxy-4-tetrazol-1-yl-benzenesulfonyl)-azepane] | < 4.30
COc1ccc(CC2NCCC3(O)CCCCC23)cc1 (stereo not given) [1-(4-Methoxy-benzyl)-octahydro-isoquinolin-4a-ol] | < 4.30
O=C1CN(c2ccc(Br)cc2)C(=O)N1CC(=O)N1CCCc2ccccc21 [1-(4-bromophenyl)-3-[2-(3,4-dihydro-1(2H)-quinolinyl)-2-oxoethyl]-2,4-imidazolidinedione] | < 4.30
CCCSc1nc(N2CCOCC2)c2c(c1C#N)CCCC2 [1-(4-morpholinyl)-3-(propylthio)-5,6,7,8-tetrahydroisoquinoline-4-carbonitrile] | < 4.30
CS(=O)(=O)N1CCN(C/C=C/c2ccccc2)CC1 [1-(methylsulfonyl)-4-(3-phenyl-2-propen-1-yl)piperazine] | < 4.30
Fc1ccc(Cn2nnnc2CN2CCN(C3CCCC3)CC2)cc1 [1-Cyclopentyl-4-[1-(4-fluoro-benzyl)-1H-tetrazol-5-ylmethyl]-piperazine] | < 4.30
NC(=O)C1(N2CCCCC2)CCN(C(=O)NC2CCCCC2)CC1 [1-N-cyclohexyl-4-piperidin-1-ylpiperidine-1,4-dicarboxamide] | < 4.30
CC(=O)N1CCc2cc(Br)cc(S(=O)(=O)NCc3ccccn3)c21 [1-acetyl-5-bromo-N-(2-pyridinylmethyl)-2,3-dihydroindole-7-sulfonamide] | < 4.30
CCOC(=O)c1cc2n(c1N)-c1ccccc1C2=O [1-amino-4-keto-pyrrol[1,2-a]indole-2-carboxylic acid ethyl ester] | < 4.30
O=C(c1ccc(-n2cnnn2)cc1)N1CCCCC1 [1-piperidinyl-[4-(1-tetrazolyl)phenyl]methanone] | < 4.30
Cn1c(-c2cc3ccc(OC(=O)C(C)(C)C)cc3oc2=O)nc2ccccc21 [2,2-Dimethyl-propionic acid 3-(1-methyl-1H-benzoimidazol-2-yl)-2-oxo-2H-chromen-7-yl ester] | < 4.30
O=C(Nc1cccn(Cc2c(Cl)cccc2Cl)c1=O)c1c(Cl)cccc1Cl [2,6-dichloro-N-[1-(2,6-dichlorobenzyl)-2-keto-3-pyridyl]benzamide] | < 4.30
Nc1cc(-c2ccc(Br)cc2)nn1S(=O)(=O)c1cccc2nsnc12 [2-(2,1,3-benzothiadiazol-4-ylsulfonyl)-5-(4-bromophenyl)-3-pyrazolamine] | < 4.30
O=C(O)C1CCCCC1C(=O)Nc1ccc2c(c1)OCCO2 (stereo not given) [2-(2,3-dihydro-1,4-benzodioxin-6-ylcarbamoyl)cyclohexane-1-carboxylic acid] | < 4.30
COc1ccccc1C1SCCN1S(=O)(=O)c1cccc(C(F)(F)F)c1 (stereo not given) [2-(2-Methoxy-phenyl)-3-(3-trifluoromethyl-benzenesulfonyl)-thiazolidine] | < 4.30
NC(=O)Cn1c(S(=O)(=O)Cc2ccccc2)nc2ccccc21 [2-(2-benzylsulfonylbenzimidazol-1-yl)acetamide] | < 4.30

Compound | pEC50
COc1ccc(Nc2oc(-c3ccccc3Cl)nc2C#N)cc1 [2-(2-chlorophenyl)-5-(4-methoxyanilino)-1,3-oxazole-4-carbonitrile] | < 4.30
Cc1nn(C(C)C(=O)N2CCCCC2)c(=O)c2c1sc1ccccc12 (stereo not given) [2-(2-keto-1-methyl-2-piperidino-ethyl)-4-methyl-benzothiopheno[2,3-d]pyridazin-1-one] | < 4.30
O=C(Cc1ccc(Cl)cc1)NCCN1CCCC1 [2-(4-Chloro-phenyl)-N-(2-pyrrolidin-1-yl-ethyl)-acetamide] | < 4.30
CNC(=O)CC(C(=O)O)c1ccc(OCC(C)C)cc1 (stereo not given) [2-(4-Isobutoxy-phenyl)-N-methyl-succinamic acid] | < 4.30
Cc1ccc(OCC(=O)Nc2ccc(N3CCOCC3)cc2)cc1 [2-(4-methylphenoxy)-N-(4-morpholin-4-ylphenyl)acetamide] | < 4.30
C=CCSc1nccc(-c2cc(Cl)sc2Cl)n1 [2-(allylsulfanyl)-4-(2,5-dichloro-3-thienyl)pyrimidine] | < 4.30
CCNC(=O)NC(=O)C(C)OC(=O)c1cccnc1SC (stereo not given) [2-(methylthio)-3-pyridinecarboxylic acid [1-(ethylcarbamoylamino)-1-oxopropan-2-yl] ester] | < 4.30
Nc1ccc2c(c1)C(=O)C(=O)c1ccccc1-2 [2-Amino-phenanthrene-9,10-dione] | < 4.30
O=C(CC1C(=O)NCCN1C(=S)Nc1ccccc1)Nc1ccc2c(c1)OCCO2 (stereo not given) [2-[1-(anilinocarbonothioyl)-3-oxo-2-piperazinyl]-N-(2,3-dihydro-1,4-benzodioxin-6-yl)acetamide] | < 4.30
O=C(CN1C(=O)c2ccccc2C1=O)N1CCN(c2nnc(-c3ccccc3)c3ccccc23)CC1 [2-[2-keto-2-[4-(4-phenylphthalazin-1-yl)piperazino]ethyl]isoindoline-1,3-quinone] | < 4.30
CCC(Sc1nc2nnc(C)c-2c(N)n1-c1cccc(Cl)c1)C(=O)NCCOC (stereo not given) [2-[4-amino-5-(3-chlorophenyl)-3-methylpyrazolo[3,4-d]pyrimidin-6-yl]sulfanyl-N-(2-methoxyethyl)butanamide] | < 4.30
O=NCc1cc(Br)ccc1OCC(=O)O [2-[4-bromanyl-2-(hydroxyiminomethyl)phenoxy]ethanoic acid] | < 4.30
CCN1C(=O)/C(=C/c2nc3ccccc3c(=O)n2-c2ccccc2)c2ccccc21 [2-[(1-ethyl-2-oxo-1,2-dihydro-3H-indol-3-ylidene)methyl]-3-phenyl-4(3H)-quinazolinone] | < 4.30
COc1ccc(S(=O)(=O)N(C)CC(=O)Nc2ccccc2C(F)(F)F)cc1 [2-[(4-methoxyphenyl)sulfonyl-methyl-amino]-N-[2-(trifluoromethyl)phenyl]acetamide] | < 4.30
CCn1ncc(CN2CCN(C(=O)Nc3ccccc3C(=O)OC)CC2)c1C [2-[[4-[(1-ethyl-5-methyl-pyrazol-4-yl)methyl]piperazine-1-carbonyl]amino]benzoic acid methyl ester] | < 4.30
CCn1c(SCC(N)=O)nnc1-c1ccc(S(=O)(=O)N2CCN(C)CC2)cc1 [2-[[4-ethyl-5-[4-(4-methylpiperazin-1-yl)sulfonylphenyl]-1,2,4-triazol-3-yl]sulfanyl]acetamide] | < 4.30
COC(=O)CNC(=O)C12CC3(C)CC(C)(CC(C)(C3)C1)C2 [2-[[oxo-(3,5,7-trimethyl-1-adamantyl)methyl]amino]acetic acid methyl ester] | < 4.30
Cc1oc2c(c1C(=O)c1ccccc1)C(=O)C(=O)c1ccccc1-2 [2-methyl-3-(phenylcarbonyl)benzo[g][1]benzofuran-4,5-dione] | < 4.30
COc1cc(OC)cc(C(=O)NCCCN2CCOCC2)c1 [3,5-Dimethoxy-N-(3-morpholin-4-yl-propyl)-benzamide] | < 4.30
Cc1cccc(-n2c(CCn3nc(C)c([N+](=O)[O-])c3C)n[nH]c2=S)c1 [3-(2-{4-nitro-3,5-dimethyl-1H-pyrazol-1-yl}ethyl)-4-(3-methylphenyl)-5-sulfanyl-4H-1,2,4-triazole] | < 4.30
Cc1cc(C)n(-c2nnc3n2N=C(c2ccccc2)CS3)n1 [3-(3,5-dimethyl-1-pyrazolyl)-6-phenyl-7H-[1,2,4]triazolo[3,4-b][1,3,4]thiadiazine] | < 4.30
Cn1nc(-c2ccc(Cl)cc2)nc2c(=O)n(C)c(=O)nc1-2 [3-(4-Chloro-phenyl)-1,6-dimethyl-1H-pyrimido[5,4-e][1,2,4]triazine-5,7-dione] | < 4.30
COc1ccc(Cn2c(=O)sc3ccccc32)cc1 [3-(4-Methoxy-benzyl)-3H-benzothiazol-2-one] | < 4.30
COC(=O)CCc1c(C)[nH]c(=S)[nH]c1=O [3-(6-methyl-4-oxo-2-sulfanylidene-1H-pyrimidin-5-yl)propanoic acid methyl ester] | < 4.30
CC(C)Sc1nc(N2CCOCC2)c2c(c1C#N)CC(C)(C)N(C)C2 [3-(isopropylthio)-6,6,7-trimethyl-1-morpholino-5,8-dihydro-2,7-naphthyridine-4-carbonitrile] | < 4.30
O=C1CCC(C(=O)O)(c2ccccc2)C1 (stereo not given) [3-Oxo-1-phenyl-cyclopentanecarboxylic acid] | < 4.30
Cc1ccc2cc(C(c3nnnn3C3CCCC3)N3CCN(c4ccccc4)CC3)c(=O)[nH]c2c1 (stereo not given) [3-[(1-cyclopentyltetrazol-5-yl)-(4-phenylpiperazin-1-yl)methyl]-7-methyl-1H-quinolin-2-one] | < 4.30
